Data as given in ChEMBL document CHEMBL6177980 (J Med Chem, 2025).
The source made the active and inactive calls. No cut-off for these calls is given here.

How the values were obtained:
[1] = Stability of compound at pH 4.0 assessed as change in purity at 1 mg/ml incubated for 4 hrs by HPLC analysis; assay type: physicochemical; conditions: buffer, pH 4, 4 h
[2] = AUC (0 to t) in fasted Sprague-Dawley rat at 5 mg/kg, iv by LC-MS/MS analysis; assay type: ADME, organism-based; conditions: in vivo
[3] = Cmax in fasted Cynomolgus monkey at 5 mg/kg, po by LC-MS/MS analysis; assay type: ADME, organism-based, Macaca fascicularis; conditions: in vivo
[4] = Oral bioavailability in fasted Cynomolgus monkey at 5 mg/kg by LC-MS/MS analysis; assay type: ADME, organism-based, Macaca fascicularis; conditions: in vivo
[5] = Cmax in fasted Cynomolgus monkey at 2 mg/kg, iv by LC-MS/MS analysis; assay type: ADME, organism-based, Macaca fascicularis; conditions: in vivo
[6] = Stability of compound at pH 6.8 assessed as change in purity at 1 mg/ml incubated for 12 hrs by HPLC analysis; assay type: physicochemical; conditions: buffer, pH 6.8, 12 h
[7] = Stability of compound at pH 4.0 assessed as change in purity at 1 mg/ml incubated for 24 hrs by HPLC analysis; assay type: physicochemical; conditions: buffer, pH 4, 24 h
[8] = Stability of compound at pH 1.5 assessed as change in purity at 1 mg/ml incubated for 24 hrs by HPLC analysis; assay type: physicochemical; conditions: buffer, pH 1.5, 24 h
[9] = Stability of compound at pH 1.5 assessed as change in purity at 1 mg/ml incubated for 4 hrs by HPLC analysis; assay type: physicochemical; conditions: buffer, pH 1.5, 4 h
[10] = AUC (0 to t) in fasted Sprague-Dawley rat at 10 mg/kg, po by LC-MS/MS analysis; assay type: ADME, organism-based; conditions: in vivo
[11] = Stability of compound at pH 1.5 assessed as change in purity at 1 mg/ml incubated for 12 hrs by HPLC analysis; assay type: physicochemical; conditions: buffer, pH 1.5, 12 h
[12] = Stability of compound at pH 6.8 assessed as change in purity at 1 mg/ml incubated for 24 hrs by HPLC analysis; assay type: physicochemical; conditions: buffer, pH 6.8, 24 h
[13] = Cmax in fasted Sprague-Dawley rat at 5 mg/kg, iv by LC-MS/MS analysis; assay type: ADME, organism-based; conditions: in vivo
[14] = AUC (0 to t) in fasted Cynomolgus monkey at 5 mg/kg, po by LC-MS/MS analysis; assay type: ADME, organism-based, Macaca fascicularis; conditions: in vivo
[15] = AUC (0 to t) in fasted Cynomolgus monkey at 2 mg/kg, iv by LC-MS/MS analysis; assay type: ADME, organism-based, Macaca fascicularis; conditions: in vivo
[16] = Half life in fasted Cynomolgus monkey at 2 mg/kg, iv by LC-MS/MS analysis; assay type: ADME, organism-based, Macaca fascicularis; conditions: in vivo
[17] = Stability in SGF assessed as compound degradation measured for 24 hrs by HPLC analysis; assay type: physicochemical; conditions: simulated gastric fluid (SGF), read-out: Drug degradation
[18] = Cmax in fasted Sprague-Dawley rat at 10 mg/kg, po by LC-MS/MS analysis; assay type: ADME, organism-based; conditions: in vivo
[19] = Stability of compound at pH 6.8 assessed as change in purity at 1 mg/ml incubated for 4 hrs by HPLC analysis; assay type: physicochemical; conditions: buffer, pH 6.8, 4 h
[20] = Stability in SIF assessed as compound degradation measured for 24 hrs by HPLC analysis; assay type: physicochemical; conditions: simulated intestinal fluid (SIF), read-out: Drug degradation
[21] = Stability of compound at pH 4.0 assessed as change in purity at 1 mg/ml incubated for 12 hrs by HPLC analysis; assay type: physicochemical; conditions: buffer, pH 4, 12 h
[22] = Half life in fasted Cynomolgus monkey at 5 mg/kg, po by LC-MS/MS analysis; assay type: ADME, organism-based, Macaca fascicularis; conditions: in vivo
[23] = Oral bioavailability in fasted Cynomolgus monkey administered orally by LC-MS/MS analysis; assay type: ADME, organism-based, Macaca fascicularis; conditions: in vivo
[24] = AUC (0 to t) in fasted Sprague-Dawley rat at 25 mg/kg, po by LC-MS/MS analysis; assay type: ADME, organism-based; conditions: in vivo
[25] = Cmax in fasted Sprague-Dawley rat at 25 mg/kg, po by LC-MS/MS analysis; assay type: ADME, organism-based; conditions: in vivo
[26] = Cmax in fasted Sprague-Dawley rat at 17.5 mg/kg, po by LC-MS/MS analysis; assay type: ADME, organism-based; conditions: in vivo
[27] = AUC (0 to t) in fasted Sprague-Dawley rat at 17.5 mg/kg, po by LC-MS/MS analysis; assay type: ADME, organism-based; conditions: in vivo
[28] = Half life in fasted Cynomolgus monkey administered orally by LC-MS/MS analysis; assay type: ADME, Macaca fascicularis; conditions: in vivo, route po
[29] = Cmax in fasted Sprague-Dawley rat at 16.5 mg/kg, po by LC-MS/MS analysis; assay type: ADME, organism-based; conditions: in vivo
[30] = AUC (0 to t) in fasted Sprague-Dawley rat at 16.5 mg/kg, po by LC-MS/MS analysis; assay type: ADME, organism-based; conditions: in vivo
[31] = system: Mammarenavirus choriomeningitidis; test: In vivo antiviral activity against LCMV infected in C57BL/6-Prf1tm1Sdz/J mouse assessed as improvement in lymphocytes percentage at 300 mg/kg, po qd treated for 7 days; assay type: functional, organism-based; conditions: time 7.0 day
[32] = system: Mammarenavirus choriomeningitidis; test: In vivo antiviral activity against LCMV infected in C57BL/6-Prf1tm1Sdz/J mouse assessed as improvement in platelet count at 300 mg/kg, po qd treated for 7 days; assay type: functional, organism-based; conditions: time 7.0 day
[33] = system: Mammarenavirus choriomeningitidis; test: In vivo antiviral activity against LCMV infected in C57BL/6-Prf1tm1Sdz/J mouse assessed as improvement in body weight loss at 300 mg/kg, po qd treated for 7 days; assay type: functional, organism-based; conditions: time 7.0 day
[34] = system: Mammarenavirus choriomeningitidis; test: In vivo antiviral activity against LCMV infected in C57BL/6-Prf1tm1Sdz/J mouse assessed as animal survival at 300 mg/kg, po qd treated for 7 days; assay type: functional, organism-based; conditions: time 7.0 day
[35] = Cmax in fasted Sprague-Dawley rat at 27 mg/kg, po by LC-MS/MS analysis; assay type: ADME, organism-based; conditions: in vivo
[36] = AUC (0 to t) in fasted Sprague-Dawley rat at 27 mg/kg, po by LC-MS/MS analysis; assay type: ADME, organism-based; conditions: in vivo
[37] = Cmax in fasted Sprague-Dawley rat at 24 mg/kg, po by LC-MS/MS analysis; assay type: ADME, organism-based; conditions: in vivo
[38] = AUC (0 to t) in fasted Sprague-Dawley rat at 24 mg/kg, po by LC-MS/MS analysis; assay type: ADME, organism-based; conditions: in vivo

Structure (SMILES) | Activity [1] | Activity [6] | Activity [7] | Activity [8] | Activity [9] | Activity [11] | Activity [12] | Activity [19] | Activity [21] | other results
O=c1ccn([C@@H]2O[C@](F)(CO)[C@@H](O)[C@H]2O)c(=O)[nH]1 | -8.8% | -44.8% | -43.5% | -86.9% | -27.9% | -64.4% | -67.1% | -18.1% | -24.9% | AUC(0-t) [2]: 7810 ng·h/mL; Cmax [3]: 2850 ng/mL; bioavailability [4]: 62.9%; Cmax [5]: 2530 ng/mL; AUC(0-t) [10]: 13000 ng·h/mL; Cmax [13]: 2900 ng/mL; AUC(0-t) [14]: 11600 ng·h/mL; AUC(0-t) [15]: 4830 ng·h/mL; half-life [16]: 4.34 h; degraded at 24 h [17]: > 80%; Cmax [18]: 1740 ng/mL; degraded at 24 h [20]: > 80%; half-life [22]: 5.13 h
CC(C)C(=O)OC[C@@]1(F)O[C@@H](n2ccc(=O)n(COC(=O)[C@@H]3CCCN3C)c2=O)[C@H](OC(=O)C(C)C)[C@@H]1OC(=O)C(C)C.Cl | -10.9% | -95% | -52.7% | -7.6% | -1.5% | -3.6% | -95% | -62.9% | -29.8% | bioavailability [23]: 91%; AUC(0-t) [24]: 14200 ng·h/mL; Cmax [25]: 2150 ng/mL
CCC(=O)OC[C@@]1(F)O[C@@H](n2ccc(=O)n(COC(=O)c3cccnc3)c2=O)[C@H](OC(=O)CC)[C@@H]1OC(=O)CC | 0% | -4.9% | -0.1% | -9.8% | -1.9% | -5.3% | -9.7% | -1.9% | -0.1% | –
CC(=O)OCCOC(=O)n1c(=O)ccn([C@@H]2O[C@](F)(COC(=O)C(C)C)[C@@H](O)[C@H]2O)c1=O | – | – | – | – | – | – | – | – | – | Cmax [26]: 915 ng/mL; AUC(0-t) [27]: 4300 ng·h/mL
CC(C)C(=O)OCn1c(=O)ccn([C@@H]2O[C@](F)(COC(=O)C(C)C)[C@@H](O)[C@H]2O)c1=O | -0.9% | -2.4% | -3% | -11.2% | -2% | -6% | -4.1% | -1% | -1.8% | half-life [28]: 6.84 h; bioavailability [23]: 66.2%; Cmax [29]: 3140 ng/mL; AUC(0-t) [30]: 20100 ng·h/mL
NC(=O)c1nc(F)cnc1O | – | – | – | – | – | – | – | – | – | Activity [31]: inactive; Activity [32]: inactive; Activity [33]: inactive; Activity [34]: inactive
O=C(OCn1c(=O)ccn([C@@H]2O[C@](F)(COC(=O)c3cccnc3)[C@@H](OC(=O)c3cccnc3)[C@H]2OC(=O)c2cccnc2)c1=O)c1cccnc1 | – | – | – | – | – | – | – | – | – | Cmax [35]: 708 ng/mL; AUC(0-t) [36]: 9080 ng·h/mL
CC(C)C(=O)OC[C@@]1(F)O[C@@H](n2ccc(=O)n(COC(=O)[C@@H](N)C(C)C)c2=O)[C@H](OC(=O)C(C)C)[C@@H]1OC(=O)C(C)C.Cl | -0.6% | -98.1% | -2.1% | -5.2% | -0.9% | -2.7% | -98.1% | -90.7% | -1.2% | Cmax [37]: 1640 ng/mL; AUC(0-t) [38]: 11700 ng·h/mL
